Reference: patent US20210355509A1, “ALTERNATIVE SPLICING REGULATION OF GENE EXPRESSION AND THERAPEUTIC METHODS” (THE CHILDREN'S HOSPITAL OF PHILADELPHIA, priority 2018, published 2021)

Assays:
[1] = tested on: SMN2 minigene Exon 7; experiment: SMN2 minigene PCR splicing assay with RG7800; type: cell-based, human; details: RG7800 10 nM, 100 nM, 1 μM and 10 μM; HEK293
Procedure: HEK293 cells were transfected with plasmids expressing the SMN2 minigene (0.3 μg) and 4 hours later treated with different doses of RG7800 (10 nM, 100 nM, 1 μM and 10 μM). 24 hours after transfection, RNA was harvested, DNAseI treated, and 1 μg of RNA was reverse transcribed to assess SMN2 minigene splicing using PCR. PCR products were separated on a 3% agarose gel and exon 7 production was quantified using the ChemiDoc Imaging System (Bio-Rad) and Imagine Lab analysis Software.

[2] = tested on: HTT; experiment: SMN2_CRISPRi regulated epigenetic silencing, Western blot; type: cell-based, human; details: RG7800 1 μM, HEK293 cells transfected with the SMN2_CRISPRi system
Procedure: (§1) HEK293 cells were transfected with plasmids encoding the CRISPRi silencing system (dCas9, sgRNA and MCP-Krab expression cassettes). Importantly, the dCas9 was cloned under the SMN2 splice regulated cassette to control dCas9 protein expression with RG7800. 24 hours after transfection, cells were selected using Puromicin (3 μM, 24 h), passaged onto a new plate, and treated with RG7800 (1 μM). HEK293 cells were lysed 36 h after RG7800 treatment using Passive lysis buffer (Promega, CA), and Huntingtin (HTT), Cas9 and Beta Catenin (Beta cat) protein levels were determined by Western Blot. Beta Catenin protein levels were determined as loading control. HTT, Cas9 and Beta Cat protein levels were quantified using the ChemiDoc Imaging System (Bio-Rad) and Imagine Lab analysis Software.

[3] = tested on: Cas9; experiment: SMN2_CRISPRi regulated Cas9 expression, Western blot; type: cell-based, human; details: RG7800 1 μM, HEK293 cells transfected with the SMN2_CRISPRi system
Procedure: as §1

[4] = tested on: SMN2 exon 7; experiment: SMN2/transactivator minigene exon 7 splicing, semi-quantitative RT-PCR; type: cell-based, human
Text: FIGS. 4a-c show modified SMN2/transactivator minigenes express spliced RNA transcript isoforms to constitutively exclude (CSI3) or include (CSI5) exon7, influencing background expression of the optimized RNAi promoter. […] The 3′ and 5′ Exon7 splicing sites in the SMN2/transactivator minigene were modified to constitutively exclude (CSI3, 3′ modified) or include (CSI5, 5′ modified) exon 7.
FIGS. 5a-b show splicing and activity of CSI and CSI3 minigenes in response to LIM070.
To regulate transactivator expression, the transactivator was cloned downstream of a self-cleaving 2A peptide and the SMN2 minigene comprising exons 6-7 and the 5′ end of exon 8, and minimal intronic intervening sequences necessary to recapitulate SMN2 splicing^38 (FIG. 4a). Note that 10% of the transcripts include exon 7, similar to the native SMN2 genetic state. The transcripts produce transactivator that partially activates the RNAi expression cassette. Thus, the 3′ and 5′ Exon7 splicing sites in the SMN2/transactivator minigene were modified to constitutively exclude (CSI3, 3′ modified) or include (CSI5, 5′ modified) exon 7, which minimizes RNAi promoter background activation^39 (FIGS. 4b-c). […] Also, the entire cassette fits into rAAV.

[5] = tested on: HEK293 cells; experiment: De novo exon splicing in response to LMI070, RNA-seq and PCR validation; type: cell-based, human; details: LMI070 25 nM, PCR
Procedure: The following methods were used to obtain the data illustrated in FIGS. 8-15. […] 12 hours after treatment RNA was extracted using Trizol followed by DNAseI treatment. Samples were evaluated for quality control on agilent bioanalyzer and all samples had RIN values >9.8 and were sent for Illumina RiboZero Gold total RNA library preparation and sequencing with an Illumina HiSeq4000. A 150 bp Pair end sequencing reads were obtained from illumina sequencing. Fastq files obtained from the illumina platform were aligned to the Human genome GRCh38 using the STAR aligner. SAM format alignment files output from STAR were sorted, converted to BAM format and indexed using Samtools. To visualize splicing at any region in the alignment BAM files were opened in IGV and visualized using the Sashimi plot function.
To identify regions of interest which contained high levels of differential splicing a custom R program was created. […] These files contained the raw counts obtained at each splice junction as calculated during alignment by STAR. […] 1) Read input files into R. 2) Create unique position IDs for each row (splice site) in the dataset. […] 6) sort the extracted reads from highest to lowest by Mean counts value. […]
The following methods were used to obtain the data in FIG. 16. […] As observed on the PCR, PCR products of higher size were detected on samples treated with LM1070 (FIG. 16). […]

[6] = LMI070 pharmacokinetics in mice, oral; type: in vivo; details: 3 mg/Kg
[7] = mice, oral, 3 mg/Kg, serum; read-out: Cmax (maximum concentration); cited from earlier work
[8] = tested on: SMN mouse model; details: cited from earlier work
[9] = tested on: SMN2 exon 7; details: mouse brain; cited from earlier work

Row | SMILES | Exon 7 inclusion in the SMN2 minigene [1] | HTT expression levels reduced [2] | Cas9 protein levels [3] | exon 7 inclusion at brain-equivalent concentration ([4]; 120 nM, CSI and CSI3 minigenes (FIG. 5)) | exon 7 inclusion in response to LMI070 ([4]; HEK293 cells, CSI and CSI3 minigenes, 20 h after LMI070 treatment) | de novo exon splicing [5] | concentration in the brain [6] [nM] | Cmax [7] [nM] | minimal dose with therapeutic effects [8] [mg/kg] | maximum dose reported to increase SMN2 exon 7 inclusion [9] [mg/kg]
1 | CCc1nc(C)cn2nc(-c3cc(=O)n4cc(C5CCN(C)CC5)cc(C)c4n3)cc12 [RG7800] | induction of Exon 7 inclusion | about 45% | increase |  |  |  |  |  |  | 
2 | CC1(C)CC(Oc2ccc(-c3ccc(-c4cn[nH]c4)cc3O)nn2)CC(C)(C)N1 [LMI070] |  |  |  | induces exon 7 inclusion | dose-responsive | novel exons are included | 120 | 86 | 1 | 30
